{"source": "patent US20120184517A1", "about": "“TREATMENT OF DISEASES WITH ALTERED SMOOTH MUSCLE CONTRACTILITY” (priority 2009, published 2012)", "key": {"rat stroke models": {"tested_on": "rat stroke models", "conditions": "in vivo; cited from earlier work"}, "[1]": {"target": "maxi-K potassium channels (Homo sapiens, UniProt Q12791)", "sequence (Q12791 whole entry)": "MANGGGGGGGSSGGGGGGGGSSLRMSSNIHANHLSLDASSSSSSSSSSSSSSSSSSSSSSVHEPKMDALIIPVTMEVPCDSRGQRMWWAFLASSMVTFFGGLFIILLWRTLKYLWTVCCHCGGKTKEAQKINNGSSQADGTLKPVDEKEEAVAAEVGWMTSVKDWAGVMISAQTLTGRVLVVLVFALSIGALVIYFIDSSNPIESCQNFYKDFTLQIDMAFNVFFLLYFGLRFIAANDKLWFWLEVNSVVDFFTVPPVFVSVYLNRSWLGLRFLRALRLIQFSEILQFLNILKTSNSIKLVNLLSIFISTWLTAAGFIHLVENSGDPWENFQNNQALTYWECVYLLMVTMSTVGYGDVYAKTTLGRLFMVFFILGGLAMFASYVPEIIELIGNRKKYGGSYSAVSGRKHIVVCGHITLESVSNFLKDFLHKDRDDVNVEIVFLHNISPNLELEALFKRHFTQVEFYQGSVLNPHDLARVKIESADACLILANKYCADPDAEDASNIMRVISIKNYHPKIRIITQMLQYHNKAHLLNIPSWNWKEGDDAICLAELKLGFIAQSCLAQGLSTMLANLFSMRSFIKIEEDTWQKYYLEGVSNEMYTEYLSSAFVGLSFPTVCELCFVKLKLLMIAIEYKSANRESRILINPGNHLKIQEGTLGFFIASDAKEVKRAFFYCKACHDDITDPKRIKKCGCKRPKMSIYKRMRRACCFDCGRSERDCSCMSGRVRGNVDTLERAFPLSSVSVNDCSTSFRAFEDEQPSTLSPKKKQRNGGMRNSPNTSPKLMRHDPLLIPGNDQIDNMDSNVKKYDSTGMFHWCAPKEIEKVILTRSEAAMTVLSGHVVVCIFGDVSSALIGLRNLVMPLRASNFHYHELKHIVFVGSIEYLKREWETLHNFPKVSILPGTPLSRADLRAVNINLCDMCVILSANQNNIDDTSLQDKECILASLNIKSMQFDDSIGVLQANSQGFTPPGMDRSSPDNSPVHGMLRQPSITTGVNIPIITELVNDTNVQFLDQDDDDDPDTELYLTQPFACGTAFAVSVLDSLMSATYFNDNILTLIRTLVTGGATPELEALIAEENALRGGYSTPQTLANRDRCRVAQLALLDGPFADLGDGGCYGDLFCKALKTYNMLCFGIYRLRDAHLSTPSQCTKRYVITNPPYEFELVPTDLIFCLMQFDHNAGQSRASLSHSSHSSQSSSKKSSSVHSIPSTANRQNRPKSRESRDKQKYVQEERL", "conditions": "50 nM intracellular Ca2+; cited from earlier work"}, "WT tracheal rings": {"tested_on": "WT tracheal rings", "test": "Isoproterenol-induced relaxation of WT tracheal rings on a myograph", "type": "cell-based, murine", "conditions": "pre-incubation with β2-AR antagonist 100 nM", "procedure": "(n=4 each). Asterisk (*) indicates P<0.05 versus vehicle (DMSO). […] Cumulative dose-response curves of WT tracheal rings to isoproterenol in the absence and presence of 100 nM iberiotoxin (IbTX), a specific BK channel inhibitor. Values in graphs are means±standard deviation.\nIn this experiment, murine tracheal smooth muscle cells were acutely isolated and whole cell patch clamped as previously described (Zakharov, S. et al., (2005) J Biol Chem 280, 30882-30887).\nTo dissect which (or both) β-AR pathways are responsible for the effects, tracheal rings were pre-incubated with either β1-AR antagonist (CGP 20712A; 100 nM) or a β2-AR antagonist (ICI 118551; 100 nM) or vehicle (DMSO). […] To confirm that the isoproterenol-induced relaxation was dependent upon BK channel-induced hyperpolarization, IbTX, a specific inhibitor of the BK channel, was used."}, "BKCa channel [2]": {"target": "T1, BKCa channel (Homo sapiens, UniProt Q12791)", "T1 sequence (Q12791 whole entry)": "as above", "conditions": "cytoplasmic side; cited from earlier work"}, "[3]": {"conditions": "not told; cited from earlier work"}, "[4]": {"target": "T2, BKCa channel in porcine coronary artery cells (Sus scrofa, UniProt O18866)", "T2 construct": "host or cells: porcine coronary artery cells", "T2 sequence (O18866 whole entry)": "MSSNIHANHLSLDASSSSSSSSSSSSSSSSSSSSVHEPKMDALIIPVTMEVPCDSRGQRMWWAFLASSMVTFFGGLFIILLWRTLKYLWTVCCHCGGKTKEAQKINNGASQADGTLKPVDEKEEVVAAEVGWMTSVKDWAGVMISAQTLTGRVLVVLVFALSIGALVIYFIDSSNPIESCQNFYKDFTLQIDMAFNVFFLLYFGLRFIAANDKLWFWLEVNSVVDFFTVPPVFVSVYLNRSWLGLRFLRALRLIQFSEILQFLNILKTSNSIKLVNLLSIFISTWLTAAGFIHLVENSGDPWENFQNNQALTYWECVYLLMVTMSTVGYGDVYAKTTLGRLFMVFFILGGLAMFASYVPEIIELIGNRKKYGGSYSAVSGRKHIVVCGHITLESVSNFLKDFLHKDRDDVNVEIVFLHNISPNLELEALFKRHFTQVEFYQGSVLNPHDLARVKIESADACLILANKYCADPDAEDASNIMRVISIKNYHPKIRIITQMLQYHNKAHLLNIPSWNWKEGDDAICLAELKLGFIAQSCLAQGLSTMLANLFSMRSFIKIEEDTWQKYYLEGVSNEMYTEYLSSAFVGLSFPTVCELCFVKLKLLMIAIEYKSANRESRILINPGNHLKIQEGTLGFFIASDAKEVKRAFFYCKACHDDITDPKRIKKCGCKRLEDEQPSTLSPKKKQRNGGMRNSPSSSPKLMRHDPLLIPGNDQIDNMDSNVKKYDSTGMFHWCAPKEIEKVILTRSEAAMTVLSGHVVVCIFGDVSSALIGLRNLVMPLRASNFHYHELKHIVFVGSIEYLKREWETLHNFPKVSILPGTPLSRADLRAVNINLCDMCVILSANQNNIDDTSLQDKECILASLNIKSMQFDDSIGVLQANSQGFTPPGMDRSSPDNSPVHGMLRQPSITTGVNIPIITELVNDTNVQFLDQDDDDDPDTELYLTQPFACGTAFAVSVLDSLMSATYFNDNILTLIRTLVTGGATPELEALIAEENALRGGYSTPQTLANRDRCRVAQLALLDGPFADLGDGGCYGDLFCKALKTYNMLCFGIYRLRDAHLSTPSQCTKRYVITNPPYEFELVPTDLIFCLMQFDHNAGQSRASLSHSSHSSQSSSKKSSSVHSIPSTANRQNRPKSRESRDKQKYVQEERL", "conditions": "cited from earlier work"}, "BKCa channel (mSlo)": {"target": "T3, BKCa channel (mSlo) (Mus musculus, UniProt Q08460)", "T3 construct": "expressed in transfected cells", "T3 sequence (Q08460 whole entry)": "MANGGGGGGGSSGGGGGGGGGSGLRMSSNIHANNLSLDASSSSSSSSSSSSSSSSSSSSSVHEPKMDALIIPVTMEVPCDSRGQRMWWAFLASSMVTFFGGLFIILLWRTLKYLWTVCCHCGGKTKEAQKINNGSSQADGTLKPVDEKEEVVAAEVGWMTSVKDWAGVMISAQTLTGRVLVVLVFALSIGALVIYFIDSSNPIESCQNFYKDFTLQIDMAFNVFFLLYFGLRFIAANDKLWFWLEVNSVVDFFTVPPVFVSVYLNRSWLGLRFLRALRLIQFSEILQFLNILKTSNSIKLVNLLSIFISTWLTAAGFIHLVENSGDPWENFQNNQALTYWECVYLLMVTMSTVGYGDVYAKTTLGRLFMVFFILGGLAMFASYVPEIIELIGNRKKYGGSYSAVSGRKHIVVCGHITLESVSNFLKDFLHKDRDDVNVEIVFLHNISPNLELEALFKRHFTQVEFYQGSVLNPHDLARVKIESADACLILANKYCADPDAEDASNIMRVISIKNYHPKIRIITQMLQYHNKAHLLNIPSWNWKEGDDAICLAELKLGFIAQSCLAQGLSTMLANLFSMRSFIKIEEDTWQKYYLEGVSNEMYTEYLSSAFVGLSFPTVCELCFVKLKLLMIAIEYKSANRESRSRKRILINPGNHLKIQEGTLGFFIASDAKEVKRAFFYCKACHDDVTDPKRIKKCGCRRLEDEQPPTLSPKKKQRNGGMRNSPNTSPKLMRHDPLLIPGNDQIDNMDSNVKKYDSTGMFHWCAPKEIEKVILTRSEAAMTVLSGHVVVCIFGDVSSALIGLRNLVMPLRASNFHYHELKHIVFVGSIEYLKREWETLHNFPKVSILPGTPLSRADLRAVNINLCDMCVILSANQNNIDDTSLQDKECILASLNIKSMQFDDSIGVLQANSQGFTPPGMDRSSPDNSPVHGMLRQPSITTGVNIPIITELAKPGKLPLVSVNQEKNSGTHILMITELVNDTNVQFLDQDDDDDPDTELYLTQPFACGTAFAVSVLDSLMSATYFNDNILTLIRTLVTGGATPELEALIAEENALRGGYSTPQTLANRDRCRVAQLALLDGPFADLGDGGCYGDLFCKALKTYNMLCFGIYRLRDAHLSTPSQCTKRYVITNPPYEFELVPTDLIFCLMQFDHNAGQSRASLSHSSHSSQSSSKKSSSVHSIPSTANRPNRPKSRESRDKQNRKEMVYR", "test": "Whole cell patch clamp of HEK293 cells stably transfected with mSlo", "type": "cell-based, murine", "procedure": "FIGS. 4A and 4B show representative current traces from whole cell patches with 5 mM EGTA in patch pipette. […] Voltage steps are shown at the right of each tracing; note the different maximum voltage steps +200 mV (upper) vs. +120 mV (lower). […] FIG. 4C G-V curves were constructed for indicated conditions utilizing tail analysis (Xia, et al., Multiple regulatory sites in large-conductance calcium-activated potassium channels. Nature, 2002. 418(6900):880-4). Solid lines were fitted with Boltzmann function. […] FIGS. 4D and 4E show experiments studying stable mslo HEK293 cells in whole cell configuration with a pipette solution containing 5 mM EGTA (˜0 free Ca^2+).\nCurrent in the diary plot in FIG. 5B represents maximal current in ramp protocol at +70 mV. Holding potential of ramp was −20 mV, with ramp from −30 mV to +180 mV over 500 ms. The G-V curve in FIG. 5C was generated from the tail analysis as described in FIG. 4.\n(§1) Current was monitored with a ramp protocol; holding potential −60 mV, with ramp from −80 mV to +150 mV over 500 ms. […] Analysis was performed using tail analysis with normalization as previously described (Xia, et al., Multiple regulatory sites in large-conductance calcium-activated potassium channels. Nature, 2002. 418(6900):880-4). […] Identification of the BKCa channel was determined by conductance and inhibition by iberiotoxin and TEA. […] Murine femoral arterial rings were isolated and placed in a wire myograph. […] The figures shown are representative of 4 similar experiments. Error bars are standard error of the mean (SEM). Asterisk (*) indicates p<0.001."}, "2K-1C hypertensive rats": {"tested_on": "2K-1C hypertensive rats", "conditions": "hypertensive rat model compared to controls; cited from earlier work"}, "[5]": {"tested_on": "porcine coronary myocytes", "conditions": "30 μM; cited from earlier work"}, "[6]": {"tested_on": "murine femoral arterial rings", "type": "cell-based", "procedure": "as §1"}, "tracheal rings": {"tested_on": "tracheal rings", "test": "Isoproterenol-induced relaxation of tracheal rings from PBS- and OVA-sensitized animals", "type": "cell-based, murine", "conditions": "no rottlerin", "procedure": "The isoproterenol-induced relaxation of tracheal rings from OVA-sensitized asthmatic animals was also tested. After induction of asthma, tracheal rings were removed and mounted on the myograph. […] At the conclusion of the experiment, each tracheal ring was exposed to methacholine to ensure viability of the ring and equivalent constriction.\nAfter induction of asthma, tracheal rings were removed and mounted on the myograph. […] The ISO-relaxation curve was shifted downward and to the right, with the maximal relaxation response reduced to only ˜25% from more than 60%."}, "[7]": {"target": "T4, BK currents in tracheal ASM cells (Mus musculus, UniProt Q08460)", "T4 construct": "The effect of ISO on BK currents in acutely isolated tracheal ASM was also determined; endogenous in cells; host or cells: acutely isolated tracheal airway smooth muscle cells", "T4 sequence (Q08460 whole entry)": "as above", "T4 sequence (Q8CAE3 whole entry partner)": "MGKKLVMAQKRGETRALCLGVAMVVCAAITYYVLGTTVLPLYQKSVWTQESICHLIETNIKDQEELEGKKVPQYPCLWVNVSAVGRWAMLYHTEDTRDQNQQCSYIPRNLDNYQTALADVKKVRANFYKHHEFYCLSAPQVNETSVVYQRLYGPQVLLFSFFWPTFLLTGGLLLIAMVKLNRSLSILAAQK", "test": "Perforated whole cell voltage clamp of acutely isolated tracheal ASM, outward K+ current", "type": "cell-based", "conditions": "0.5 μM ISO", "procedure": "FIG. 23A is a diary plot of current recorded during repetitive stimulation by depolarizing ramps every 5 seconds to +200 mV from a holding potential of −20 mV. ISO and ISO+IbTX exposure are indicated by bars at bottom of plot. Dashed line indicates average control current.\nThe effect of ISO on BK currents in acutely isolated tracheal ASM was also determined. ASM cells were studied using perforated whole cell voltage clamp. After obtaining access, outward K^+ current was monitored using a 0.5 second ramp, from a holding potential of −20 mV to +200 mV. […] Under the conditions used, the majority of the outward K^+ current is conducted by the BK channel, as shown by IbTX-blockade (FIGS. 23A and 23B)."}, "BKCa channel [8]": {"target": "T1, BKCa channel", "conditions": "cited from earlier work"}, "dilation to forskolin": {"tested_on": "dilation to forskolin", "conditions": "cited from earlier work"}}}
{"compound": "COc1ccc(Cl)cc1[C@]1(F)C(=O)Nc2cc(C(F)(F)F)ccc21", "note": "[BMS-204352]", "values": [{"measurement": "brain infarct size", "setting": "rat stroke models", "result": "reduction in brain infarct size"}, {"measurement": "effect on current", "setting": "[1]", "result": "almost no effect"}]}
{"compound": "Cc1ccc(OCC(O)C(C)NC(C)C)c2c1CCC2", "note": "(centres unmarked) [ICI 118551, reference compound]", "values": [{"measurement": "isoproterenol dose-response curve", "setting": "WT tracheal rings", "result": "rightward shift in the dose-response curve"}]}
{"compound": "C=C[C@]1(C)C=C2CC[C@@]3(O)C(C)(C)CC[C@H](O)[C@]3(C)C2CC1", "note": "(some centres unmarked) [Maxikdiol]", "values": [{"measurement": "concentration of significant effect", "setting": "BKCa channel [2]", "result": "3 to 10", "unit": "µM"}, {"measurement": "threshold of channel activation", "setting": "BKCa channel [2]", "result": 1, "unit": "µM"}, {"measurement": "membrane permeability", "setting": "[3]", "result": "limited"}]}
{"compound": "O=C(Nc1cccc(C(F)(F)F)c1)Nc1cc(Cl)ccc1O", "note": "[NS1608]", "values": [{"measurement": "effect at higher concentrations", "setting": "[4]; 50 μM", "result": "inhibitory effect"}, {"measurement": "concentration of maximum activation", "setting": "[4]", "result": "5 to 10", "unit": "µM"}, {"measurement": "minimum effective concentration", "setting": "[4]", "result": 0.5, "unit": "µM"}]}
{"compound": "O=c1[nH]c2cc(C(F)(F)F)ccc2n1-c1cc(C(F)(F)F)ccc1O", "note": "[NS-1619]", "values": [{"measurement": "peak K+ current", "setting": "BKCa channel (mSlo); NS-1619 10 μM extracellular", "result": "activated peak K^+ current"}, {"measurement": "efficacy in mediating vascular relaxation", "setting": "2K-1C hypertensive rats", "result": "diminished"}, {"measurement": "intracellular Ca2+ concentration", "setting": "[5]", "result": "increase intracellular Ca^2+ concentration"}]}
{"compound": "CC[N+](CC)(CC)CC", "note": "[TEA, tetraethylammonium, reference compound]", "values": [{"measurement": "effect on rottlerin induced BKCa activation", "setting": "BKCa channel (mSlo)", "result": "reversibly inhibited"}, {"measurement": "effect on the rottlerin mediated effect", "setting": "[6]", "result": "inhibited"}]}
{"compound": "CC(C)NCC(O)c1ccc(O)c(O)c1", "note": "(centres unmarked) [isoproterenol, reference compound]", "values": [{"measurement": "maximal relaxation response to isoproterenol", "setting": "tracheal rings; OVA-sensitized rings", "result": "~25", "unit": "%"}, {"measurement": "maximal relaxation response to isoproterenol", "setting": "tracheal rings; control rings", "result": "more than 60%"}, {"measurement": "increase of outward K+ current", "setting": "[7]", "result": "more than 50%"}]}
{"compound": "CC1(C)C[C@@H](O)[C@]2(C)CC[C@]3(C)C(=CC[C@@H]4[C@@]5(C)CC[C@H](O[C@@H]6O[C@H](C(=O)O)[C@@H](O)[C@H](O)[C@H]6O[C@@H]6O[C@H](CO)[C@H](O)[C@H](O)[C@H]6O)[C@](C)(CO)[C@@H]5CC[C@]43C)[C@@H]2C1", "note": "[soyasaponin III]", "values": [{"measurement": "BKCa channel activation", "setting": "BKCa channel [8]", "result": "activate BKCa channels"}]}
{"compound": "C[C@@H]1O[C@@H](O[C@H]2[C@H](O[C@H]3[C@H](O[C@H]4CC[C@@]5(C)[C@@H](CC[C@]6(C)[C@@H]5CC=C5[C@@H]7CC(C)(C)C[C@@H](O)[C@]7(C)CC[C@]56C)[C@@]4(C)CO)O[C@H](C(=O)O)[C@@H](O)[C@@H]3O)O[C@H](CO)[C@H](O)[C@@H]2O)[C@H](O)[C@H](O)[C@H]1O", "note": "[soyasaponin I]", "values": [{"measurement": "BKCa channel activation", "setting": "BKCa channel [8]", "result": "activate BKCa channels"}]}
{"compound": "Ryanodine", "values": [{"measurement": "reduction of dilation to forskolin", "setting": "dilation to forskolin", "result": 80, "unit": "%"}]}
{"compound": "dehydrosoyasaponin-I [DHS-I]", "values": [{"measurement": "BKCa channel activation", "setting": "BKCa channel [8]", "result": "activate BKCa channels"}, {"measurement": "channel activity with α and β subunits co-expressed", "setting": "BKCa channel [8]", "result": "increases channel activity"}, {"measurement": "membrane permeability", "setting": "[3]", "result": "poor"}]}
